In patent US12139520B2 (priority 2020, dated 2024):
pEC50: −log10 of the molar value. Numbered stars: 1 amine (or outer) side, 2 acyl side, 3 side chain; on linkers, the order of the positions; unused ones are H or OH. Bridge positions count the residues as written; N and C are the ends. Square brackets hold non-standard residues; d marks the D form. Peptide text beside a SMILES is read from it. * marks the point of attachment. C20 diacid = O=C(O)CCCCCCCCCCCCCCCCCCC(=O)*; γGlu = O=C(O)[C@H](CCC(=O)[*:2])N[*:1]; Hyp = O=C(O)[C@@H]1C[C@@H](O)CN1; NMeI = CC[C@H](C)[C@H](NC)C(=O)O; Sar = CNCC(=O)O

biological target: T1, hAMY3 receptor (Homo sapiens, UniProt O60896+P30988); experiment: cAMP assay for in vitro receptor activation, hAMY3-R; format: cell-based; settings: cAMP assay, hAMY3 receptor; read-out: hAMY3R EC50
T1 sequence (P30988 25-474): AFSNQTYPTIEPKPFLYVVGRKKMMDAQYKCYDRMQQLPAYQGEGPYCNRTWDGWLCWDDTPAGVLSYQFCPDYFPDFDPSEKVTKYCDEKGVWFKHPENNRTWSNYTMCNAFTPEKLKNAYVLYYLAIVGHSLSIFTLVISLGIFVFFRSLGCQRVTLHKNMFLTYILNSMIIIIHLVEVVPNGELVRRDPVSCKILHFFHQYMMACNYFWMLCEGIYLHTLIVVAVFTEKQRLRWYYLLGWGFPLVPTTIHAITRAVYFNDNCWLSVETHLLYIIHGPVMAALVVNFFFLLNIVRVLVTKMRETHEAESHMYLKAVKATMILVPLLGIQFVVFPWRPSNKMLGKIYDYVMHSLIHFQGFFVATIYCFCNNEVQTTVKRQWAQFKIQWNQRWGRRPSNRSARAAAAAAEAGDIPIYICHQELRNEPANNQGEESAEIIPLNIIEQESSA
T1 sequence (O60896 24-148 partner): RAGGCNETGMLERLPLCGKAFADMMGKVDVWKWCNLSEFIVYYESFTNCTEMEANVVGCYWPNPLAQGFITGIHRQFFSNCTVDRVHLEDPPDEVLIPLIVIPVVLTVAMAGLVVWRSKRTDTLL
Method: General Protocols for cAMP Assays for Measuring In Vitro Receptor Activation
Cells stably overexpressing the hAMY3 receptor were obtained from Ogeda (now Astellas Pharma), sub-cloned and a monoclonal cell-line with an appropriate assay-window was expanded, aliquoted and frozen.
An aliquot was thawed and plated in DPBS with 0.05% casein and 0.5 mM IBMX as 2000 cells/well in a 384-well format. The cells were then immediately stimulated for 30 min at room temperature with graded doses of test compound using human amylin (Bachem, cat no. H-7905) as a positive control. cAMP accumulation was measured using a Cisbio assay for Gs coupled receptors (cat. no. 62AM4PEC), where the assay reagents were added as per the manufacturer's instructions and time-resolved fluorescence energy transfer recorded after one hour.

Row | Compound | pEC50
1 | CC(C)C[C@H](NC(=O)[C@H](CCCNC(=N)N)NC(=O)[C@H](CCC(N)=O)NC(=O)[C@@H](NC(=O)[C@@H](NC(=O)[C@@H]1CSSC[C@H](NC(=O)CN)C(=O)N[C@@H](CCCNC(=N)N)C(=O)N[C@@H](Cc2ccccc2)C(=O)NCC(=O)N[C@@H]([C@@H](C)O)C(=O)N1)[C@@H](C)O)C(C)C)C(=O)N[C@@H](C)C(=O)N[C@@H](Cc1c[nH]cn1)C(=O)N[C@@H](Cc1ccccc1)C(=O)N[C@@H](CC(C)C)C(=O)N[C@@H](Cc1ccc(O)cc1)C(=O)N[C@@H](CCC(N)=O)C(=O)N[C@@H](Cc1ccccc1)C(=O)N[C@H](C(=O)N[C@@H](CC(=O)O)C(=O)N[C@@H](CCCCN)C(=O)N[C@@H](CC(=O)O)C(=O)N[C@@H](CCCCN)C(=O)N[C@@H](CC(=O)O)C(=O)N[C@@H](CC(N)=O)C(=O)N[C@H](C(=O)N[C@@H](C)C(=O)N1CCC[C@H]1C(=O)N[C@@H](CCCNC(=N)N)C(=O)N[C@H](C(=O)N[C@@H](CC(N)=O)C(=O)N[C@H](C(=O)NCC(=O)N1CCC[C@H]1C(=O)N[C@@H](CCC(N)=O)C(=O)NCC(=O)N[C@@H](Cc1ccc(O)cc1)C(N)=O)C(C)C)[C@@H](C)O)C(C)C)[C@@H](C)O [compound 54] (H-GCRFGTCTVQRLAHFLYQFTDKDKDNVAPRTNVGPQGY-NH2; disulfide 2-7; N-terminus assumed) | 10.92
2 | CC[C@H](C)[C@H](NC(=O)[C@H](CCC(N)=O)NC(=O)[C@H](Cc1c[nH]cn1)NC(=O)[C@H](C)NC(=O)[C@H](CC(C)C)NC(=O)[C@H](CCCNC(=N)N)NC(=O)[C@H](CCC(=O)O)NC(=O)[C@@H](NC(=O)[C@@H](NC(=O)[C@@H]1CSSC[C@H](NC(=O)[C@H](CCCCN)NC(=O)CC[C@H](NC(=O)CCCCCCCCCCCCCCCCCCC(=O)O)C(=O)O)C(=O)N[C@@H](CC(N)=O)C(=O)N[C@@H]([C@@H](C)O)C(=O)N[C@@H](C)C(=O)N[C@@H]([C@@H](C)O)C(=O)N1)[C@@H](C)O)C(C)C)C(=O)N[C@@H](Cc1ccc(O)cc1)C(=O)N[C@@H](CCC(N)=O)C(=O)N[C@@H](Cc1ccccc1)C(=O)N[C@H](C(=O)N[C@@H](CC(=O)O)C(=O)N[C@@H](CCCCN)C(=O)N[C@@H](CC(=O)O)C(=O)N[C@@H](CCCCN)C(=O)N[C@@H](CC(=O)O)C(=O)N[C@@H](CC(N)=O)C(=O)N[C@H](C(=O)N[C@@H](C)C(=O)N1CCC[C@H]1C(=O)N1CCC[C@H]1C(=O)N[C@H](C(=O)N[C@@H](CC(N)=O)C(=O)N[C@H](C(=O)NCC(=O)N[C@@H](CO)C(=O)N[C@@H](CC(N)=O)C(=O)NCC(=O)N1C[C@H](O)C[C@H]1C(N)=O)C(C)C)[C@@H](C)O)C(C)C)[C@@H](C)O [compound 55] ({C20 diacid-γGlu}-KCNTATCTVERLAHQIYQFTDKDKDNVAPPTNVGSNG[Hyp]-NH2; disulfide 2-7) | 10.92
3 | CC(C)C[C@H](NC(=O)[C@H](CCCNC(=N)N)NC(=O)[C@H](CCC(N)=O)NC(=O)[C@@H](NC(=O)[C@@H](NC(=O)[C@@H]1CSSC[C@H](NC(=O)CN)C(=O)N[C@@H](CCCNC(=N)N)C(=O)N[C@@H](Cc2ccccc2)C(=O)NCC(=O)N[C@@H]([C@@H](C)O)C(=O)N1)[C@@H](C)O)C(C)C)C(=O)N[C@@H](C)C(=O)N[C@@H](Cc1c[nH]cn1)C(=O)N[C@@H](Cc1ccccc1)C(=O)N[C@@H](CC(C)C)C(=O)N[C@@H](Cc1ccc(O)cc1)C(=O)N[C@@H](CCC(N)=O)C(=O)N[C@@H](Cc1ccccc1)C(=O)N[C@H](C(=O)N[C@@H](CC(=O)O)C(=O)N[C@@H](CCCCN)C(=O)N[C@@H](CC(=O)O)C(=O)N[C@@H](CCCCN)C(=O)N[C@@H](CC(=O)O)C(=O)N[C@@H](CC(N)=O)C(=O)N[C@H](C(=O)N[C@@H](C)C(=O)N1CCC[C@H]1C(=O)N[C@@H](CCCNC(=N)N)C(=O)N[C@H](C(=O)N[C@@H](CC(N)=O)C(=O)N[C@H](C(=O)NCC(=O)N[C@@H](CO)C(=O)N[C@@H](CC(N)=O)C(=O)N[C@H](C(=O)N[C@@H](Cc1ccc(O)cc1)C(N)=O)[C@@H](C)O)C(C)C)[C@@H](C)O)C(C)C)[C@@H](C)O [compound 56] (H-GCRFGTCTVQRLAHFLYQFTDKDKDNVAPRTNVGSNTY-NH2; disulfide 2-7; N-terminus assumed) | 10.92
4 | CC[C@H](C)[C@H](NC(=O)[C@H](CCC(N)=O)NC(=O)[C@H](Cc1c[nH]cn1)NC(=O)[C@H](C)NC(=O)[C@H](CC(C)C)NC(=O)[C@H](CCCNC(=N)N)NC(=O)[C@H](CCC(N)=O)NC(=O)[C@@H](NC(=O)[C@@H](NC(=O)[C@@H]1CSSC[C@H](NC(=O)[C@H](CCCCN)NC(=O)CC[C@H](NC(=O)CCCCCCCCCCCCCCCCCCC(=O)O)C(=O)O)C(=O)N[C@@H](CC(N)=O)C(=O)N[C@@H]([C@@H](C)O)C(=O)N[C@@H](C)C(=O)N[C@@H]([C@@H](C)O)C(=O)N1)[C@@H](C)O)C(C)C)C(=O)N[C@@H](Cc1ccc(O)cc1)C(=O)N[C@@H](CCC(N)=O)C(=O)N[C@@H](Cc1ccccc1)C(=O)N[C@@H](CO)C(=O)N[C@@H](CC(=O)O)C(=O)N[C@@H](CCCCN)C(=O)N[C@@H](CC(=O)O)C(=O)N[C@@H](CCCCN)C(=O)N[C@@H](CC(=O)O)C(=O)N[C@@H](CC(N)=O)C(=O)N[C@H](C(=O)N[C@@H](C)C(=O)N1CCC[C@H]1C(=O)N1CCC[C@H]1C(=O)N[C@H](C(=O)N[C@@H](CC(N)=O)C(=O)N[C@H](C(=O)NCC(=O)N[C@@H](CO)C(=O)N[C@@H](CC(N)=O)C(=O)NCC(=O)N1C[C@H](O)C[C@H]1C(N)=O)C(C)C)[C@@H](C)O)C(C)C [compound 57] ({C20 diacid-γGlu}-KCNTATCTVQRLAHQIYQFSDKDKDNVAPPTNVGSNG[Hyp]-NH2; disulfide 2-7) | 10.92
5 | CC[C@H](C)[C@H](NC(=O)[C@H](CCC(N)=O)NC(=O)[C@H](Cc1c[nH]cn1)NC(=O)[C@H](C)NC(=O)[C@H](CC(C)C)NC(=O)[C@H](CCCNC(=N)N)NC(=O)[C@H](CCC(N)=O)NC(=O)[C@@H](NC(=O)[C@@H](NC(=O)[C@@H]1CSSC[C@H](NC(=O)[C@H](CCCCN)NC(=O)CC[C@H](NC(=O)CCCCCCCCCCCCCCCCCCC(=O)O)C(=O)O)C(=O)N[C@@H](CC(N)=O)C(=O)N[C@@H](Cc2ccccc2)C(=O)N[C@@H](C)C(=O)N[C@@H]([C@@H](C)O)C(=O)N1)[C@@H](C)O)C(C)C)C(=O)N[C@@H](Cc1ccc(O)cc1)C(=O)N[C@@H](CCC(N)=O)C(=O)N[C@@H](Cc1ccccc1)C(=O)N[C@H](C(=O)N[C@@H](CC(=O)O)C(=O)N[C@@H](CCCCN)C(=O)N[C@@H](CC(=O)O)C(=O)N[C@@H](CCCCN)C(=O)N[C@@H](CC(=O)O)C(=O)N[C@@H](CC(N)=O)C(=O)N[C@H](C(=O)N[C@@H](C)C(=O)N1CCC[C@H]1C(=O)N1CCC[C@H]1C(=O)N[C@H](C(=O)N[C@@H](CCC(=O)O)C(=O)N[C@H](C(=O)NCC(=O)N[C@@H](CO)C(=O)N[C@@H](CC(N)=O)C(=O)NCC(=O)N1C[C@H](O)C[C@H]1C(N)=O)C(C)C)[C@@H](C)O)C(C)C)[C@@H](C)O [compound 68] ({C20 diacid-γGlu}-KCNFATCTVQRLAHQIYQFTDKDKDNVAPPTEVGSNG[Hyp]-NH2; disulfide 2-7) | 10.89
6 | CC[C@H](C)[C@@H](C(=O)N[C@@H](CC(C)C)C(=O)N[C@@H](CO)C(=O)N[C@@H](CO)C(=O)N[C@H](C(=O)N[C@@H](CCC(=O)O)C(=O)N[C@H](C(=O)NCC(=O)N[C@@H](CO)C(=O)N[C@@H](CC(N)=O)C(=O)N[C@H](C(=O)N1C[C@H](O)C[C@H]1C(N)=O)[C@@H](C)O)C(C)C)[C@@H](C)O)N(C)C(=O)[C@H](C)NC(=O)CN(C)C(=O)[C@H](Cc1ccccc1)NC(=O)[C@H](CO)NC(=O)[C@H](CO)NC(=O)[C@H](CCCNC(=N)N)NC(=O)[C@H](CCC(N)=O)NC(=O)[C@H](CC(C)C)NC(=O)[C@H](Cc1ccccc1)NC(=O)[C@H](Cc1c[nH]cn1)NC(=O)[C@H](C)NC(=O)[C@H](CC(C)C)NC(=O)[C@H](CCCNC(=N)N)NC(=O)[C@H](CCC(=O)O)NC(=O)[C@@H](NC(=O)[C@H](C)NC(=O)[C@@H]1CSSC[C@H](NC(=O)[C@H](CCCNC(=N)N)NC(=O)CC[C@H](NC(=O)CCCCCCCCCCCCCCCCCCC(=O)O)C(=O)O)C(=O)N[C@@H](CCC(N)=O)C(=O)N[C@@H]([C@@H](C)O)C(=O)N[C@@H](C)C(=O)N[C@@H]([C@@H](C)O)C(=O)N1)[C@@H](C)O [compound 80] ({C20 diacid-γGlu}-RCQTATCATERLAHFLQRSSF[Sar]A[NMeI]LSSTEVGSNT[Hyp]-NH2; disulfide 2-7) | 10.82
